According to patent publication US5028586A, “Insulin derivatives and pharmaceutical preparations containing these derivatives” (Novo Norkisk A/S, priority 1985, dated 1991):

Tested on: guinea pigs
Assay: Protracted hypoglycemia in guinea pigs after subcutaneous injection of insulin derivative preparations
Type: in vivo
Method: 25 ml of a medium containing 1.6 %(w/v) of glycerol. 0.33 % (w/v) of m-cresol, 1/75 M of sodium phosphate, pH value 7.3, were prepared. The solution was sterilized by filtration. 1.5 mg of human insulin-B21-methyl ester, prepared as described in Example 1, were suspended in 1.0 ml of medium.
4.5 mg of human insulin-A17-methyl ester were dissolved in 2.7 ml of 0.015 M phosphoric acid. 21 mg of sodium chloride and 4.1 μliters of an aqueous solution of 152 mM zinc chloride were added. The solution was sterilized by filtration. The pH value of the solution was adjusted to 8.0 under aseptic conditions with a sterile aqueous solution of sodium hydroxide. The pH value of the solution was then readjusted to 7.3 with sterile hydrochloric acid, and rhombohedral crystals with a mean size of 10 μm were formed with gentle stirring at 21° C. The volume was adjusted to 3 ml with sterile water.
Moreover, a sterile solution of 3 ml of 13.5 mM phosphoric acid in admixture with 21 mg of sodium chloride and 9 μliters of m-cresol was prepared, and the pH value was adjusted to 7.3 with a sterile aqueous solution of sodium hydroxide. The two solutions were combined.
15 mg of human insulin-A4-gln, obtained as described in Example 5, was dissolved in 10 ml of a solution containing 13.5 mM phosphoric acid, 0.3 % m-cresol and 1.6 % glycerol. The solution was sterilized by filtration, and the pH value was adjusted to 9,0 with a sterile solution of sodium hydroxide. The pH value was readjusted to 8.2 with a sterile solution of hydrochloric acid, and human insulin-A4-gln crystallized as rhombohedral crystals with gentle stirring.

human insulin-A17-methyl ester
biological activity (area below the blood glucose curve) compared with human insulin (dosage 18 μg/kg, crystalline zinc preparation): nearly the same biological activity as human insulin
protracted insulin action compared with "Insulatard" (dosage 18 μg/kg, crystalline zinc preparation, comparator "Insulatard"): longer than the protracted action of the known injection preparation
hypoglycemia induced (dosage 18 μg/kg, crystalline zinc preparation, pH 7.3): strongly protracted hypoglycemia

human insulin-A4-gln
protracted hypoglycemic effect compared with "Insulatard" (subcutaneous injection of crystalline suspension at 0.5 IU/kg, "Insulatard" at 0.5 IU/kg): nearly identical both in timing and amplitude

human insulin-B21-methyl ester
protracted insulin action compared with "Insulatard" (subcutaneous, zinc-free preparation, comparator standard protamin insulin preparation "Insulatard"): comparable to the hypoglycemia observed after injection of a standard protamin insulin preparation
hypoglycemia after subcutaneous administration (subcutaneous, zinc-free suspension 1.5 mg in 1.0 ml medium, pH 7.3): protracted hypoglycemia was observed
